The values below come from patent US7498343B2, “Mycobacterial inhibitors” (priority 2002, dated 2009).

≈ marks a conversion by molar mass, not a printed value. Read-outs that look alike come from different tables or passages of the source.

For one experiment, the system named is M. Smegmatis ATCC607. The experiment is described as follows: In-vitro method for testing compounds for anti-bacterial activity against strain M. smegmatis ATCC607 (Alamar Blue growth inhibition). To be noted: pIC50 = -logIC50, IC50 in M, 50% inhibitory concentration for bacterial growth, 48 hours incubation; for IC50: Mycolicibacterium smegmatis, ATCC607, 48 h. In kind it is cell-based. Summed up: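 About 250 CFU/well M. smegmatis ATCC607 in Mueller-Hinton broth exposed to five-fold serial compound dilutions, 48 h at 37 °C, humidified 5% CO2. Growth read by Alamar Blue fluorescence (ex 530/em 590 nm) after 2 h further incubation; % growth inhibition calculated.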
Background: Resazurin is reduced to fluorescent resorufin, in cell work by metabolically active cells.

Experiment [1] relates to Mycobacterium tuberculosis (strain H37RV). The experiment is described as follows: In-vitro method for testing compounds against M. tuberculosis (resazurin growth inhibition, MIC). In kind it is cell-based. Particulars: MIC data representing IC90's, 7 days incubation, resazurin fluorescence.
[2] abbreviates: read-out: pIC50, M. smegmatis ATCC607 (converted).
Where [3] appears, read: Mycobacterium tuberculosis, H37RV, 168 h, read-out: MIC.

What is called pIC50 is −log10 of the IC50, conventionally taken in molar units. `COc1nc2ccc(Br)cc2cc1C(c1ccccc1)C(O)(CCCN(C)C)c1cccc2ccccc12` (single isomer, unassigned) [Compound 186] displayed a pIC50 with M. Smegmatis ATCC607 (M. smegmatis ATCC607) of 4.5. The compound also gave an MIC in experiment [1] of 56.96 microgram/ml.

`COc1nc2ccc(Br)cc2cc1C(c1ccccc1)C(O)(CCCCN(C)C)c1ccc2ccccc2c1` (single isomer, unassigned) [Compound 190] gave a pIC50 in the experiment on M. Smegmatis ATCC607 (M. smegmatis ATCC607) of 6.5. Further, the MIC in experiment [1] is reported as 1.85 microgram/ml.

On to `COc1nc2ccc(Br)cc2cc1C(c1ccccc1)C(O)(CCCCN(C)C)c1ccc2ccccc2c1` (single isomer, unassigned) [Compound 191], for which the negative logarithm of the IC50 (pIC50) in the experiment with M. Smegmatis ATCC607 (M. smegmatis ATCC607) amounted to 6.5. The MIC in experiment [1] turned out to be 1.85 microgram/ml.

On to `CCN(CC)CCCC(O)(c1ccc2ccccc2c1)C(c1ccccc1)c1cc2cc(Br)ccc2nc1OC` (single isomer, unassigned) [Compound 192], for which the pIC50 in the experiment with M. Smegmatis ATCC607 (M. smegmatis ATCC607) worked out at 6.5. Besides, in experiment [1], the MIC came to 5.98 microgram/ml.

The compound `CCN(CC)CCCC(O)(c1ccc2ccccc2c1)C(c1ccccc1)c1cc2cc(Br)ccc2nc1OC` (single isomer, unassigned) [Compound 193] gave a pIC50 with M. Smegmatis ATCC607 (M. smegmatis ATCC607) of 5.6. Besides, the MIC in experiment [1] is 9.47 microgram/ml.

On to `COc1nc2ccc(Br)cc2cc1C(c1ccccc1)C(O)(CCCN1CCCC1)c1cccc2ccccc12` (single isomer, unassigned) [Compound 194], for which the pIC50 in the experiment on M. Smegmatis ATCC607 (M. smegmatis ATCC607) is listed as 4.9. Moreover, the MIC in experiment [1] amounted to 47.31 microgram/ml.

In turn, `COc1nc2ccc(Br)cc2cc1C(c1ccccc1)C(O)(CCCCN(C)C)c1cccc2ccccc12` (single isomer, unassigned) [Compound 197] showed a negative-log IC50 (pIC50) in the experiment on M. Smegmatis ATCC607 (M. smegmatis ATCC607) of 6.6. For the same compound, in experiment [1], the MIC stood at 9.25 microgram/ml.

In the experiment on M. Smegmatis ATCC607 (M. smegmatis ATCC607), `COc1nc2ccc(Br)cc2cc1C(c1ccccc1)C(O)(CCCN1CCOCC1)c1ccc2ccccc2c1` (single isomer, unassigned) [Compound 198] gave a pIC50 of 4.3. The MIC in experiment [1] stood at 61.16 microgram/ml.

Regarding `COc1nc2ccc(Br)cc2cc1C(c1ccccc1)C(O)(CCCN(C)C)c1cccc2ccccc12` (single isomer, unassigned) [Compound 199], the negative-log IC50 (pIC50) with M. Smegmatis ATCC607 (M. smegmatis ATCC607) amounted to 6.5. Moreover, the MIC in experiment [1] worked out at 47.47 microgram/ml.

For `COc1nc2ccc(Br)cc2cc1C(c1ccccc1)C(O)(CCN1CCN(c2ncccn2)CC1)c1ccc2ccccc2c1` (single isomer, unassigned) [Compound 200], the pIC50 in the experiment on M. Smegmatis ATCC607 (M. smegmatis ATCC607) came to 4.9. Besides, the MIC in experiment [1] is 67.47 microgram/ml.

In turn, `COc1nc2ccc(Br)cc2cc1C(c1ccccc1)C(O)(CCN(C)C)C1CCN(C(=O)c2ccccc2)CC1` (single isomer, unassigned) [Compound 201] had a negative-log IC50 (pIC50) in the experiment with M. Smegmatis ATCC607 (M. smegmatis ATCC607) of 5.7. This compound gave an MIC in experiment [1] of 9.77 microgram/ml.

`COc1nc2ccc(Br)cc2cc1C(c1ccccc1)C(O)(CCN(C)C)C1CCN(C(=O)c2ccccc2)CC1` (single isomer, unassigned) [Compound 202] had a negative logarithm of the IC50 (pIC50) with M. Smegmatis ATCC607 (M. smegmatis ATCC607) of 4.8. The MIC in experiment [1] is listed as 48.98 microgram/ml.

As to `COc1nc2ccc(-c3cc4ccccc4s3)cc2cc1C(c1ccccc1)C(O)(CCN(C)C)c1cccc(F)c1` (single isomer, unassigned) [Compound 203], the pIC50 with M. Smegmatis ATCC607 (M. smegmatis ATCC607) is on record as 8.0. In experiment [1], this compound showed an MIC of 1.15 microgram/ml.

On to `COc1nc2ccc(-c3cc4ccccc4s3)cc2cc1C(c1ccccc1)C(O)(CCN(C)C)c1cccc(F)c1` (single isomer, unassigned) [Compound 204], for which the pIC50 in the experiment on M. Smegmatis ATCC607 (M. smegmatis ATCC607) was determined as 5.4. In experiment [1], this compound yielded an MIC of 9.14 microgram/ml.

As to `COc1nc2ccc(Br)cc2cc1C(c1ccccc1)C(O)(CCCN1CCOCC1)c1cccc2ccccc12` (single isomer, unassigned) [Compound 210], in the experiment on M. Smegmatis ATCC607 (M. smegmatis ATCC607), the negative-log IC50 (pIC50) was determined as 6.1. The compound also registered an MIC in experiment [1] of 61.16 microgram/ml.

In turn, `COc1nc2ccc(Br)cc2cc1C(c1ccccc1)C(O)(CCCN1CCOCC1)c1cccc2ccccc12` (single isomer, unassigned) [Compound 211] gave a pIC50 with M. Smegmatis ATCC607 (M. smegmatis ATCC607) of 4.1. In experiment [1], this compound yielded an MIC of 61.16 microgram/ml.

Consider `COc1nc2ccc(-c3ccc(CO)o3)cc2cc1C(c1ccccc1)C(O)(CCN(C)C)c1cccc2ccccc12` (single isomer, unassigned) [Compound 212], for which the pIC50 in the experiment on M. Smegmatis ATCC607 (M. smegmatis ATCC607) was 6.0. This compound also came in with an MIC in experiment [1] of 9.08 microgram/ml.

In the experiment with M. Smegmatis ATCC607 (M. smegmatis ATCC607), `COc1nc2cc(C)c(Br)cc2cc1C(c1ccccc1)C(O)(CCN(C)C)c1cccc(F)c1` (single isomer, unassigned) [Compound 215] came in with a pIC50 of 6.2. In experiment [1], this compound showed an MIC of 8.52 microgram/ml.

Regarding `COc1nc2cc(C)c(Br)cc2cc1C(c1ccccc1)C(O)(CCN(C)C)c1cccc(F)c1` (single isomer, unassigned) [Compound 216], the negative-log IC50 (pIC50) in the experiment with M. Smegmatis ATCC607 (M. smegmatis ATCC607) is listed as 8.0. In experiment [1], this compound had an MIC of 0.85 microgram/ml.

Turning to `COc1nc2cc(Br)ccc2cc1C(c1ccccc1)C(O)(CCN(C)C)c1cccc2ccccc12` (single isomer, unassigned) [Compound 217], the pIC50 with M. Smegmatis ATCC607 (M. smegmatis ATCC607) is listed as 6.9. Besides, in experiment [1], the MIC is 44.13 microgram/ml.

`COc1nc2cc(Br)ccc2cc1C(c1ccccc1)C(O)(CCN(C)C)c1cccc2ccccc12` (single isomer, unassigned) [Compound 218] gave a pIC50 in the experiment with M. Smegmatis ATCC607 (M. smegmatis ATCC607) of 6.6. The MIC in experiment [1] was 8.80 microgram/ml.

Regarding `COc1nc2c(C)cc(Br)cc2cc1C(c1ccccc1)C(O)(CCN(C)C)c1cccc(F)c1` (single isomer, unassigned) [Compound 219], the pIC50 with M. Smegmatis ATCC607 (M. smegmatis ATCC607) is 5.8. The MIC in experiment [1] stood at 42.69 microgram/ml.

In the case of `COc1nc2c(C)cc(Br)cc2cc1C(c1ccccc1)C(O)(CCN(C)C)c1cccc(F)c1` (single isomer, unassigned) [Compound 220], the negative logarithm of the IC50 (pIC50) in the experiment with M. Smegmatis ATCC607 (M. smegmatis ATCC607) came to 5.3. Further, the MIC in experiment [1] turned out to be 8.52 microgram/ml.

`COc1nc2cccc(Br)c2cc1C(c1ccccc1)C(O)(CCN(C)C)c1cccc2ccccc12` (single isomer, unassigned) [Compound 221] gave a pIC50 in the experiment with M. Smegmatis ATCC607 (M. smegmatis ATCC607) of 6.5. The MIC in experiment [1] turned out to be 44.13 microgram/ml.

As to `COc1nc2cccc(Br)c2cc1C(c1ccccc1)C(O)(CCN(C)C)c1cccc2ccccc12` (single isomer, unassigned) [Compound 224], the pIC50 with M. Smegmatis ATCC607 (M. smegmatis ATCC607) was 4.9. Besides, the MIC in experiment [1] is on record as 44.13 microgram/ml.

With `COc1nc2cc(C)c(Br)cc2cc1C(c1ccccc1)C(O)(CCN(C)C)c1cccc2ccccc12` (single isomer, unassigned) [Compound 225], the negative-log IC50 (pIC50) with M. Smegmatis ATCC607 (M. smegmatis ATCC607) stood at 6.6. The MIC in experiment [1] came out at 1.80 microgram/ml.

Regarding `COc1nc2cc(C)c(Br)cc2cc1C(c1ccccc1)C(O)(CCN(C)C)c1cccc2ccccc12` (single isomer, unassigned) [Compound 226], the negative-log IC50 (pIC50) with M. Smegmatis ATCC607 (M. smegmatis ATCC607) is 5.5. Further, the MIC in experiment [1] came to 9.03 microgram/ml.

For the compound `COc1nc2cc(C)c(Br)cc2cc1C(c1ccccc1)C(O)(CCN(C)C)c1cc(F)cc(F)c1` (single isomer, unassigned) [Compound 227], the pIC50 in the experiment on M. Smegmatis ATCC607 (M. smegmatis ATCC607) is 7.5. This compound displayed an MIC in experiment [1] of 1.76 microgram/ml.

In the experiment on M. Smegmatis ATCC607 (M. smegmatis ATCC607), `COc1nc2cc(C)c(Br)cc2cc1C(c1ccccc1)C(O)(CCN(C)C)c1cc(F)cc(F)c1` (single isomer, unassigned) [Compound 228] yielded a pIC50 of 5.1. In experiment [1], this compound registered an MIC of 8.80 microgram/ml.

In the case of `COc1nc2cc(C)c(C)cc2cc1C(c1ccccc1)C(O)(CCN(C)C)c1cccc2ccccc12` (single isomer, unassigned) [Compound 229], the pIC50 with M. Smegmatis ATCC607 (M. smegmatis ATCC607) amounted to 7.1. In experiment [1], the MIC was found to be 40.09 microgram/ml.

Compound `CCOc1nc2ccc(Br)cc2cc1C(c1ccccc1)C(O)(CCN(C)C)c1ccccc1` (stereo not drawn) [Compound 6] gave a pIC50 in the experiment on M. Smegmatis ATCC607 (M. smegmatis ATCC607) of 5.8. In experiment [1], the MIC was determined as 8.23 microgram/ml.

For `COc1nc2ccc(Br)cc2cc1[C@@H](c1ccccc1)[C@@](O)(CCN(C)C)c1cccc2ccccc12` [Compound 12, (1R,2S) 1-(6-bromo-2-methoxy-quinolin-3-yl)-4-dimethylamino-2-naphthalen-1-yl-1-phenyl-butan-2-ol], in the experiment with M. Smegmatis ATCC607 (setting [2]), the IC50 was 2 nM. In experiment [1] (setting [3]), the MIC was determined as 0.07 µg/mL (≈ 0.126 µM).

On to `COc1nc2ccc(Br)cc2cc1C(c1ccccc1)C(O)(CCN(C)C)c1cccc2ccccc12` (stereo not drawn) [Compound 13], for which the IC50 in the experiment with M. Smegmatis ATCC607 (setting [2]) was 200 nM. This compound also came in with an MIC in experiment [1] of 44.13 microgram/ml.

As for `COc1nc2ccc(Br)cc2cc1C(c1ccccc1)C(O)(CCN(C)C)c1cccc2ccccc12` (stereo not drawn) [Compound 14], in the experiment on M. Smegmatis ATCC607 (M. smegmatis ATCC607), the pIC50 was 6.8. The compound further displayed an MIC in experiment [1] of 8.80 microgram/ml.

The compound `COc1nc2ccc(Br)cc2cc1C(c1ccccc1)C(O)(CCN(C)C)c1cccc2ccccc12` (stereo not drawn) [Compound 15] came in with a negative logarithm of the IC50 (pIC50) in the experiment on M. Smegmatis ATCC607 (M. smegmatis ATCC607) of 6.5. Moreover, in experiment [1], the MIC is given as 2.78 microgram/ml.

For the compound `CCN(CC)CCC(O)(c1ccccc1)C(c1ccccc1)c1cc2cc(Br)ccc2nc1OC` (stereo not drawn) [Compound 18], the IC50 with M. Smegmatis ATCC607 (M. smegmatis ATCC607, read-out: pIC50 (converted)) is 200 nM. Also, the MIC in experiment [1] (setting [3]) turned out to be 10.6 µg/mL (≈ 19.9 µM).

As for `CCN(CC)CCC(O)(c1ccccc1)C(c1ccccc1)c1cc2cc(Br)ccc2nc1OC` (stereo not drawn) [Compound 19], in the experiment with M. Smegmatis ATCC607 (M. smegmatis ATCC607), the pIC50 came out at 6.5. Also, in experiment [1], the MIC was found to be 6.72 microgram/ml.

As for `COc1nc2ccc(Br)cc2cc1C(c1ccccc1)C(O)(CCN(C)C)c1cccc(F)c1` (stereo not drawn) [Compound 38], in the experiment with M. Smegmatis ATCC607 (M. smegmatis ATCC607), the pIC50 came out at 7.9. In experiment [1], the MIC stood at 8.30 microgram/ml.

For `COc1nc2ccc(Br)cc2cc1C(c1ccccc1)C(O)(CCN(C)C)c1cccc(F)c1` (stereo not drawn) [Compound 39], the negative logarithm of the IC50 (pIC50) with M. Smegmatis ATCC607 (M. smegmatis ATCC607) turned out to be 6.1. Also, the MIC in experiment [1] is 8.30 microgram/ml.
